Results published in US6949669B2, “Organic compounds” (Syngenta Crop Protection, Inc., priority 2000, dated 2005).

Legend:
Type in all cases: in vivo
Amaranthus [1] = assay: Post-emergence herbicidal action (Example B2); parameters: key: 1=total damage; 9=no action; details: 1 kg/ha, post-emergence at 2- to 3-leaf stage, evaluated 2 to 3 weeks later, rating scale 1-9 (1=total damage, 9=no action)
From the text: (§1) Post-emergence Herbicidal Action Monocot and dicot test plants are sown in standard soil in plastic pots. At the 2- to 3-leaf stage, the test plants are sprayed with test substances as an aqueous suspension [prepared from a wettable powder (Example F3, b) of WO 97/34485)] or as an emulsion [prepared from an emulsion concentrate (Example F1 c) of WO 97/34485)] in an optimal dosage (500 l of water/ha). The test plants are then cultivated in the greenhouse under optimum conditions. The test is evaluated 2 to 3 weeks later on a rating scale of 1-9 (1=total damage, 9=no action). Ratings of 1 to 4 (especially 1 to 3) denote good to very good herbicidal action.

Chenopodium [2] = assay: Post-emergence herbicidal action (Example B2); parameters: key: 1=total damage; 9=no action; details: 1 kg/ha, post-emergence at 2- to 3-leaf stage, evaluated 2 to 3 weeks later, rating scale 1-9 (1=total damage, 9=no action)
From the text: as §1

Stellaria [3] = assay: Post-emergence herbicidal action (Example B2); details: 1 kg/ha, post-emergence at 2- to 3-leaf stage, evaluated 2 to 3 weeks later, rating scale 1-9 (1=total damage, 9=no action)
From the text: as §1

Amaranthus [4] = assay: Pre-emergence herbicidal action (Example B1); parameters: key: 1=total damage; 9=no action; details: 1 kg/ha, evaluated 4 weeks later, rating scale 1-9 (1=total damage, 9=no action)
Protocol: (§2) Pre-emergence Herbicidal Action Monocot and dicot test plants are sown in standard soil in plastic pots. Immediately after sowing, the test substances are sprayed on as an aqueous suspension [prepared from a wettable powder (Example F3, b) of WO 97/34485)] or as an emulsion [prepared from an emulsion concentrate (Example F1 c) of WO 97/34485)] in an optimal dosage (500 l of water/ha). The test plants are then cultivated in the greenhouse under optimum conditions. The test is evaluated 4 weeks later on a rating scale of 1-9 (1=total damage, 9=no action). Ratings of 1 to 4 (especially 1 to 3) denote good to very good herbicidal action.

Chenopodium [5] = assay: Pre-emergence herbicidal action (Example B1); parameters: key: 1=total damage; 9=no action; details: 1 kg/ha, evaluated 4 weeks later, rating scale 1-9 (1=total damage, 9=no action)
Protocol: as §2

Digitaria = assay: Pre-emergence herbicidal action (Example B1); parameters: key: 1=total damage; 9=no action; details: 1 kg/ha, evaluated 4 weeks later, rating scale 1-9 (1=total damage, 9=no action)
Protocol: as §2

Panicum = assay: Pre-emergence herbicidal action (Example B1); parameters: key: 1=total damage; 9=no action; details: 1 kg/ha, evaluated 4 weeks later, rating scale 1-9 (1=total damage, 9=no action)
Protocol: as §2

Setaria = assay: Pre-emergence herbicidal action (Example B1); parameters: key: 1=total damage; 9=no action; details: 1 kg/ha, evaluated 4 weeks later, rating scale 1-9 (1=total damage, 9=no action)
Protocol: as §2

Stellaria [6] = assay: Pre-emergence herbicidal action (Example B1); parameters: key: 1=total damage; 9=no action; details: 1 kg/ha, evaluated 4 weeks later, rating scale 1-9 (1=total damage, 9=no action)
Protocol: as §2

Veronica = assay: Pre-emergence herbicidal action (Example B1); parameters: key: 1=total damage; 9=no action; details: 1 kg/ha, evaluated 4 weeks later, rating scale 1-9 (1=total damage, 9=no action)
Protocol: as §2

Compound	Postemergence test rating, Amaranthus (Amaranthus [1])	Postemergence test rating, Chenopodium (Chenopodium [2])	Postemergence test rating, Stellaria (Stellaria [3])	Preemergence test rating, Amaranthus (Amaranthus [4])	Preemergence test rating, Chenopodium (Chenopodium [5])	Preemergence test rating, Digitaria (Digitaria)	Preemergence test rating, Panicum (Panicum)	Preemergence test rating, Setaria (Setaria)	Preemergence test rating, Stellaria (Stellaria [6])	Preemergence test rating, Veronica (Veronica)
COc1cc(C#N)ccc1OCC#Cc1cccc(Cl)c1 [Entry 1.095]	1	2	2	–	–	–	–	–	–	–
COc1cc(CC#N)ccc1OCC#Cc1cccc(CC#N)c1 [Compound 1.168]	–	–	–	1	2	3	1	4	1	4
COc1cc(C#N)ccc1OCC#Cc1cccc(Br)c1 [Compound 1.104]	2	2	3	1	1	7	7	4	1	1
COc1cc(C#N)ccc1OCC#Cc1ccc(Cl)cc1 [Compound 1.098]	1	1	2	1	1	3	1	1	1	1
COc1cc([N+](=O)[O-])ccc1OCC#Cc1cccc(CC#N)c1 [Compound 1.198]	1	1	3	1	1	1	1	3	1	1
COc1cc(C#N)ccc1OCC#Cc1cccc(CC#N)c1 [Compound 1.109]	1	4	2	1	1	1	1	6	1	1
COc1ccccc1OCC#Cc1cccc(CC#N)c1 [Compound 1.033]	4	2	2	1	1	1	2	2	1	1
